Reference: patent US20120114596A1, “TSLP PROMOTES IMMUNE EVASION AND PERSISTENCE OF VIRUSES” (priority 2009, published 2012)
Entries after “also recorded” stand apart in the source; their conditions may differ.

What was measured:
CD11c+ DCs = assay type: cell-based, human
Langerhans cells (LC) = assay: Epidermal explant model of LC emigration; assay type: cell-based, human; conditions: FIGS. 2B and C
From the text: Next, epidermal explants were used as a global model to study the emigration of LC.

DCs [1] = assay: DC polarization / cytoskeleton architecture by epifluorescence microscopy; assay type: cell-based, human
DCs [2] = assay: DC motility in micro-channel system (confined environment); assay type: cell-based, human
From the text: A tissue represents a confined environment for cell migration (Irimia et al., Lab Chip, 2007, 7, 1783-1790). Cells may be “trapped” in narrow spaces, being forced to pass through areas of diverse densities. In order to mimic such in vivo situation, a micro-channel system was used. This system allows quantifying diverse parameters to define the cell movement and to restrain the direction of the mobile cells.
The microfluidic device was fabricated in PDMS (Whitesides G. M., E., O., Takayama S., X., J. & E, I. D. Ann Rev Biomed Eng, 2001 3, 335). The PDMS piece, with embedded microchannels and holes for the inlet and outlet ports, and a glass Iwaki chamber (Milian) were activated in a plasma cleaner (PDC-32G Harrick) and bonded to each other. The chambers were left under strong vacuum for 5 min in the plasma cleaner and plasma was turned on to render the top surface of the PDMS and the inlet and outlet holes hydrophilic. Fibronectin solution at 50 μg/ml was placed on top of the inlet and outlet ports. The solution spontaneously invaded the channels and all air bubbles were resorbed into the PDMS due to the previous vacuum treatment. Fibronectin was incubated for 1 h at room temperature, then washed with PBS then replaced by cell culture medium. The cells were concentrated and micropipette tips containing the cells were inserted in the inlet port. Cells fell inside the port, bound to the bottom coverslip and started migrating. They entered the channels spontaneously, without any mechanical or chemical stimulation.
Phase contrast […], using an automated microscope (Nikon ECLIPSE TE1000-E, and Olympus X71, with a Marzhauser motorized stage and an HQ2 Roper camera) equipped with an environmental chamber for temperature, humidity and CO2 (Life Imaging Services). Cells remained alive and motile during the entire period of recording.
To analyse the importance of myosin II in DCs migration, cells were pre-treated with […] blebbistatin and then concentrated and inserted in the microchannels.

naive CD4+ T cells = assay: Priming of naive CD4+ T cells by activated DCs, T cell cytokine profile; assay type: cell-based, human; conditions: DC:T 1:5, 5-6 days, re-stimulation
Procedure: After 24 h of culture, stimulated CD11c^+ DCs were collected, washed, and co-cultured with allogenic naïve CD4^+ T cells in round-bottomed plates 96-well culture plates (Falcon) at a 1:5 DC: T cell ratio in Yssel's medium (kind gift of Hans Yssel) containing 10% FCS (Hyclone). Peripheral blood naïve CD4^+ T cells were isolated by using CD4 T cell isolation kit II (Miltenyi Biotec) followed by staining for CD45RO-FITC, CD45RA-PE, CD4-APC, and cell sorting of CD45RA^+, CD4^+, CD45RO^− cells (purity>99%) with a FACSAria (BD Bioscience). Standard Th subsets were generated in presence of Dynabeads CD3/CD28 T cell expander (1 bead per cell) (Invitrogen) and 10 ng/ml IL-12 (R&D Systems) for Th1, 25 ng/ml IL-4 (R&D Systems) for Th2 and in absence of any polarizing cytokine for Th0.
After 5-6 days, cells were harvested, extensively washed and viability was determined by trypan blue exclusion. […] Cytokines in culture supernatants were measured by cytometric bead assay (CBA) Flex Sets (BD Bioscience) according to the manufacturer's instruction. IFN-γ-, IL-4-, IL-10-, TNF-producing cells were analysed by intracellular cytokine staining after addition of 10 μg/ml Brefeldin during the last 3 h of re-stimulation. […] Cells were stained with anti-IFN-γ FITC, anti-IL-4 PE, anti-IL-10 PE, anti-TNF PE (BD Pharmingen) washed and then analysed by flow cytometry (FACScan Becton Dickinson).

DCs [3] = assay: DC activation by surface expression of CD40, CD80, CD86, OX40L
TSLP expression = conditions: cited from earlier work

Compound: TSLP: cytokine of the IL-7 family produced by epithelial cells; recombinant from R&D Systems
- DC migration in transwell (CD11c+ DCs): highly efficient for migration
- time after TSLP exposure at which migration started (CD11c+ DCs): 3 h
- migration of CD1a+ Langerin+ TSLP-receptor+ CD80+ cells from epidermal explants (Langerhans cells (LC)): significantly increased; also recorded: more efficient than TNFa
- DC polarization (actin cytoskeleton morphology) (DCs [1]): extremely polarized
- increase in capacity of DCs to enter micro-channels vs control medium (DCs [2]; 3 h time-lapse, n=3): 4 fold
- median velocity of DC in micro-channels vs medium (DCs [2]; DC pre-cultured in medium or TSLP): no significant difference
- T cell cytokine profile induced by activated DC (naive CD4+ T cells): Th2 profile
- DC activation based on surface CD40, CD80 and CD86 (DCs [3]; 24 h of culture): strong up-regulation
- surface OX40-ligand (OX40L) expression on DC (DCs [3]; 48 h of culture): up-regulation

Compound: c1ccc2ncncc2c1 [quinazoline]
- regulation of TSLP expression (TSLP expression): negative regulators of TSLP expression

Compound: Cc1ccc2c(c1)C(=O)C1(O)CCN(c3ccccc3)C1=N2 (centres unmarked) [blebbistatin, reference compound]
- blebbistatin dose inhibiting TSLP-induced DC migration (CD11c+ DCs): 20 nM
- morphology of TSLP-DCs under myosin II inhibition (DCs [1]; TSLP with 20 nM blebbistatin, 12 h): extremely elongated cellular shape
- effect on TSLP-induced DC entry into micro-channels (DCs [2]; blebbistatin 50 nM pre-culture): significantly inhibited

Compound: CC1=C(/C=C/C(C)=C\C=C\C(C)=C\C(=O)O)C(C)(C)CCC1 [9-cis-retinoic acid]
- regulation of TSLP expression (TSLP expression): negative regulators of TSLP expression
